Experimental findings from patent US10662204B2 (PFIZER INC., priority 2018, dated 2020) are described below.

Experiment [1] addresses T1, GDP-loaded KRAS (1-169) G12C, C51S, C80L, C118S (Homo sapiens, UniProt P01116, C118S/C51S/C80L/G12C).
T1 construct: GDP-loaded KRAS (1-169) G12C, C51S, C80L, C118S
The experiment is described as follows: Mass Spectrometry Reactivity Assay (MSRA): covalent adduct of compound and KRAS G12C, Percent Modification. The experiment is classed as binding. The note with it: for MSRA (% modification) 10 μM 0.25 hr / MSRA (% modification) 10 μM 0.50 hr: 10 μM compound. Summed up:
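GDP-loaded KRAS(1-169) G12C/C51S/C80L/C118S at 5 μM in 25 mM Hepes pH 7.5, 200 mM NaCl, 5% glycerol incubated at RT with compound (typically 5 or 10 μM final, 1% DMSO). Quenched in formic acid at 1-60 min; intact-protein LC-TOF MS gives % modification = modified/(modified+unmodified).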

In the next experiment the target is KRAS G12C (Homo sapiens, UniProt P01116, G12C). Put plainly: Cell Activity Assay: accumulation of GDP-bound KRAS G12C in MIAPaCa-2 cells (Raf-1 RBD capture, MSD readout). To be noted: 6 hours, assay limit is 30.00. The experiment is classed as cell-based. Further details: endogenous in cells; host or cells: MIAPaCa-2. An outline of the steps:
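MIAPaCa-2 cells exposed 6 h at 37 °C to 3-fold compound dilutions (0.3% DMSO final), then lysed. Active GTP-KRAS captured on Raf-1 RBD-coated plates, detected with anti-pan-Ras and SULFO-TAG secondary by MSD electrochemiluminescence. Signal normalized to DMSO and maximum inhibition; IC50 from 4-parameter fit.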

Broadly, the IC50 is the concentration at which inhibition is half-maximal. High values mean a need for much substance, low ones inhibition by little substance. For the compound `C=CC(=O)N1CCN(c2nc(OC[C@H]3CCC(=O)N3)nc3c(Oc4c(C)ccc5[nH]ncc45)cccc23)CC1` [Example 10F, (5R)-5-[({4-(4-acryloylpiperazin-1-yl)-8-[(5-methyl-1H-indazol-4-yl)oxy]quinazolin-2-yl}oxy)methyl]pyrrolidin-2-one], in experiment [1], the “MSRA (% modification) 10 μM 0.25 hr” value is reported as 53% and the “MSRA (% modification) 10 μM 0.50 hr” value turned out to be 65%. This compound came in with an IC50 against KRAS G12C of 6.07 µM.
Take `C=CC(=O)N1CCN(c2nc(OC[C@@H]3CCCN3C)nc3c(Oc4c(C)c(Cl)cc5[nH]ncc45)nc(Cl)cc23)CC1` [Example 10G, 1-[4-(6-chloro-8-[(6-chloro-5-methyl-1H-indazol-4-yl)oxy]-2-{[(2S)-1-methylpyrrolidin-2-yl]methoxy}pyrido[3,4-d]pyrimidin-4-yl)piperazin-1-yl]prop-2-en-1-one]: the “MSRA (% modification) 10 μM 0.25 hr” value in experiment [1] is 53%. On KRAS G12C, 0.071 µM corresponded to half-maximal inhibition (IC50).
For the compound `C=CC(=O)N1CCN(c2nc(OC[C@H]3COCCN3C)nc3c(Oc4c(Cl)c(F)cc5[nH]ncc45)nccc23)CC1` [Example 10H, 1-[4-(8-[(5-chloro-6-fluoro-1H-indazol-4-yl)oxy]-2-{[(3R)-4-methylmorpholin-3-yl]methoxy}pyrido[3,4-d]pyrimidin-4-yl)piperazin-1-yl]prop-2-en-1-one], in experiment [1] (5.0 μM compound), the “MSRA (% modification) 5.0 μM 0.25 hr” value was 47%. For the same compound, in experiment [1], the “MSRA (% modification) 10 μM 0.50 hr” value was 68%. In addition, 0.965 µM corresponded to half-maximal inhibition at KRAS G12C (IC50).
As to `C=CC(=O)N1CCN(c2nc(O[C@@H]3CN(C)C[C@H]3OC)nc3c(Oc4c(Cl)c(F)cc5[nH]ncc45)nccc23)CC1` [Example 10I, 1-[4-(8-[(5-chloro-6-fluoro-1H-indazol-4-yl)oxy]-2-{[(3R,4R)-4-methoxy-1-methylpyrrolidin-3-yl]oxy}pyrido[3,4-d]pyrimidin-4-yl)piperazin-1-yl]prop-2-en-1-one], the “MSRA (% modification) 5.0 μM 0.017 hr” value in experiment [1] (5.0 μM compound, 0.017 hr) worked out at 70%. For the same compound, the “MSRA (% modification) 5.0 μM 0.25 hr” value in experiment [1] (5.0 μM compound) is reported as 82%. The same compound showed a half-maximal inhibitory concentration (IC50) against KRAS G12C of 0.022 µM.
For `C=CC(=O)N1CCN(c2nc(O[C@@H]3CCC[C@H]3N(C)C)nc3c(Oc4c(C)ccc5[nH]ncc45)nccc23)CC1` [Example 11B, 1-[4-(2-{[(1R,2R)-2-(dimethylamino)cyclopentyl]oxy}-8-[(5-methyl-1H-indazol-4-yl)oxy]pyrido[3,4-d]pyrimidin-4-yl)piperazin-1-yl]prop-2-en-1-one], the “MSRA (% modification) 10 μM 0.25 hr” value in experiment [1] is given as 21%. The compound further had an IC50 against KRAS G12C of 4.89 µM.
Turning to `C=CC(=O)N1CCN(c2nc(N3CC(N(C)C)C3)nc3c(Oc4c(Cl)c(C)cc5[nH]ncc45)cc(Cl)cc23)CC1` [Example 11E, 1-(4-{6-chloro-8-[(5-chloro-6-methyl-1H-indazol-4-yl)oxy]-2-[3-(dimethylamino)azetidin-1-yl]quinazolin-4-yl}piperazin-1-yl)prop-2-en-1-one], the “MSRA (% modification) 10 μM 0.50 hr” value in experiment [1] stood at 68%. Also, the IC50 against KRAS G12C was 3.95 µM.
With `C=CC(=O)N1CCN(c2nc(OC[C@@H]3CCC(=O)N3)nc3c(Oc4c(C)ccc5[nH]ncc45)cccc23)CC1` [Example 11F, (5S)-5-[({4-(4-acryloylpiperazin-1-yl)-8-[(5-methyl-1H-indazol-4-yl)oxy]quinazolin-2-yl}oxy)methyl]pyrrolidin-2-one], in experiment [1], the “MSRA (% modification) 10 μM 0.25 hr” value was 34% and the “MSRA (% modification) 10 μM 0.50 hr” value stood at 55%. This compound had an IC50 on KRAS G12C of 8.14 µM.
`C=CC(=O)N1CCN(c2nc(OC[C@@H]3C[C@H](F)CN3C)nc3c(Oc4c(Cl)c(F)cc5[nH]ncc45)nccc23)CC1` [Example 11H, 1-[4-(8-[(5-chloro-6-fluoro-1H-indazol-4-yl)oxy]-2-{[(2S,4S)-4-fluoro-1-methylpyrrolidin-2-yl]methoxy}pyrido[3,4-d]pyrimidin-4-yl)piperazin-1-yl]prop-2-en-1-one]: the “MSRA (% modification) 10 μM 0.25 hr” value in experiment [1] came to 80%. Further, the concentration for half-maximal inhibition (IC50) on KRAS G12C was 0.237 µM.
